Experimental data published in US7956069B2, “Compounds” (AstraZeneca AB, priority 2006, dated 2011).

What follows are compounds tested against T1, hM1 (human Muscarinic receptor subtype 1) (Homo sapiens, UniProt P11229) (assay: Human M1 calcium mobilization FLIPR assay). Settings: CHO cells expressing hM1, Ca2+ release.
T1 construct: expressed in transfected cells; host or cells: CHO cells (Chinese hamster ovary cells, ATCC)
T1 sequence (P11229 1-460): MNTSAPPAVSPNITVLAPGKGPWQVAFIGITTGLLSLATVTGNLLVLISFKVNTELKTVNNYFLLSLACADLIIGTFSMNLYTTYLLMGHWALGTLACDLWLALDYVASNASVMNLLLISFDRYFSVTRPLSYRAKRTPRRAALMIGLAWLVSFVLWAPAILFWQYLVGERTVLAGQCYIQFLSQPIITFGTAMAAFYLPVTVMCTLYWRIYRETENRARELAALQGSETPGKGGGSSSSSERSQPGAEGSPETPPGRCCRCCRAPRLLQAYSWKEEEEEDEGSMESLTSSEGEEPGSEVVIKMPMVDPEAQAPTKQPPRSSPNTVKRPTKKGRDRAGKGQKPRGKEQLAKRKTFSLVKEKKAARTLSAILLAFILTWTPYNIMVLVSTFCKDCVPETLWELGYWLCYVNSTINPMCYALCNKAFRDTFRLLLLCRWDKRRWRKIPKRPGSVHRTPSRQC
Format: cell-based
Procedure: Biological Evaluation Human M1, Rat M1, Human M3 and Human M5 Calcium Mobilization FLIPR™ Assay
The compound activity in the present invention (EC50 or IC50) was measured using a 384 plate-based imaging assay that monitors drug induced intracellular Ca^2+ release in whole cells. Activation of hM1 (human Muscarinic receptor subtype 1, gene bank access NM_000738), rM1 (rat Muscarinic receptor subtype 1, gene bank access NM_080773), hM3 (human Muscarinic receptor subtype 3, gene bank access NM_000740NM_000740) and hM5 (human Muscarinic receptor subtype 5, gene bank access NM_0121258), receptors expressed in CHO cells (Chinese hamster ovary cells, ATCC) was quantified in a Molecular Devices FLIPR II™ instrument as an increase in fluorescent signal. Inhibition of hM3 and hM5 by compounds was determined by the decrease in fluorescent signal in response to 20 nM carbachol activation.
CHO cells were plated in 384-black polylysine coated plate (Costar) at 8000 cells/well/50 μl for 24 hours or 4000 cells/well for 48 hours in a humidified incubator (5% CO2 and 37° C.) in DMEM/F12 medium without selection agent. Prior to the experiment the cell culture medium was removed from the plates by inversion. A loading solution of 30 μl of Hank's balanced salt solution, 10 mM Hepes and 2.5 mM Probenicid at Ph 7.4 (Cat no. 311-520-VL, Wisent) with 2 μM calcium indicator dye (FLUO-3AM, Molecular Probes F14202) was added to each well. Plates were incubated at 37° C. for 60 minutes prior to start the experiment. The incubation was terminated by washing the cells four times in assay buffer, leaving a residual 25 μl buffer per well. Cell plates were then transferred to the FLIPR, ready for compound additions.
The day of experiment, carbachol and compounds were diluted in three-fold concentration range (10 points serial dilution) for addition by FLIPR instrument. For all calcium assays, a baseline reading was taken for 30 seconds followed by the addition of 12.5 μl (25 μl for hM1 and rM1) of compounds, resulting in a total well volume of 37.5 μl (50 μl for hM1 and rM1). Data were collected every 1.6 seconds for 300 seconds. For hM3 and hM5 an additional 12.5 μl of carbachol (20 nM final) was added at 300 seconds. After this addition of carbachol (producing a final volume of 50 μl), the FLIPR continued to collect data every 2 seconds for 240 seconds. The fluorescence emission was read using filter 1 (emission 520-545 nm) by the FLIPR on board CCD camera.
Calcium mobilization output data were calculated as the maximal relative fluorescence unit (RFU) minus the minal value for both compound and agonist reading frame (except for hM1 and rM1 using only the maximal RFU). Data were analyzed using sigmoidal fits of a non-linear curve-fitting program (XLfit version 5.0.6 from ID Business Solutions Limited, Guildford, UK). All EC50 and IC50 values are reported as arithmetic means±standard error of mean of ‘n’ independent experiments.
An EC50 of 14 nM was found for `CC(C)OC(=O)N1CCC(N2CCC(N3C(=O)C[C@H]4CCCC[C@@H]43)CC2)CC1` in this work.
An EC50 of 200 nM was found for `COc1ccccc1C(=O)N1CCC(N2CCC(N3C(=O)N[C@@H]4CCCC[C@H]43)CC2)CC1` in this work.
An EC50 of 95 nM was found for `O=C(C1CCCC1)N1CCC(N2CCC(N3C(=O)N[C@H]4CCCC[C@@H]43)CC2)CC1` in this work.
An EC50 of 2.5 nM was found for `O=C(OCCF)N1CCC(N2CCC(N3C(=O)N[C@H]4CCCC[C@@H]43)CC2)CC1` in this work.
An EC50 of 4.6 nM was found for `CC(C)OC(=O)N1CCC(N2CCC(N3C(=O)N[C@H]4CCCC[C@@H]43)CC2)CC1` in this work.
An EC50 of 15 nM was found for `CC(C)OC(=O)N1CCC(N2CCC(N3C(=O)N[C@@H]4CCCC[C@@H]43)CC2)CC1` in this work.
An EC50 of 94 nM was found for `CN1C(=O)N(C2CCN(C3CCN(C(=O)C4CC4)CC3)CC2)[C@H]2CCCC[C@@H]21` in this work.
An EC50 of 9.2 nM was found for `O=C1CCCN1CCC(=O)N1CCC(N2CCC(N3C(=O)N[C@@H]4CCCC[C@H]43)CC2)CC1` in this work.
An EC50 of 5 nM was found for `CCOC(=O)N1CC[C@H](N2CCC(N3C(=O)N[C@H]4CCCC[C@@H]43)CC2)C1` in this work.
An EC50 of 46 nM was found for `O=C(C1CC1)N1CCC(N2CCC(N3C(=O)N[C@@H]4CCCC[C@H]43)CC2)CC1` in this work.
An EC50 of 1.1 nM was found for `CCOC(=O)N1CCC(N2CCC(N3C(=O)N[C@H]4CCCC[C@@H]43)CC2)CC1` in this work.
An EC50 of 6.8 nM was found for `O=C1CCCN1CCC(=O)N1CCC(N2CCC(N3C(=O)N[C@H]4CCCC[C@@H]43)CC2)CC1` in this work.
